Measurements taken from patent US20080132500A1, “Antibiotic compounds” (priority 2006, published 2008).
≈ marks a conversion by molar mass, not a printed value. Read-outs that look alike come from different tables or passages of the source.

How the values were obtained:
Test in all cases: Microbroth dilution MIC
Assay type in all cases: cell-based
[1] = tested on: Staphylococcus Aureus CL 8260; conditions: Staphylococcus Aureus strain CL 8260
Procedure: (§1) Cation-Adjusted Mueller Hinton Broth (BBL): Prepared according to manufacturer's instructions (22 gms dissolved in 1000 mL water; autoclaved 22 minutes). Stored refrigerated. Filter-sterilized before use using a Coming 0.45 Tm cellulose acetate filter.
(§2) The type of strains listed above can be obtained from publicly available sources. The strain of Haemophilus influenzae used in to assay the compound of this invention is a mouse pathogen used for in vivo testing at Merck. The Escherichia coli strain used in to assay the compound of this invention is a cell wall permeable strain. The Candida albicans strain is used as a control. These culture are maintained as frozen stocks at −80° C. in a) Microbank beads; b) 2× Skim Milk; or c) in 2× X Trypticase Soy Broth+15% glycerol/50% horse serum (Haemophilus and Streptococcus pneumoniae).
(§3) Selected isolates are sub-cultured onto either Chocolate Agar Plates (Haemophilus influenzae), onto Trypticase Soy+5% Sheep Blood Agar Plates (Streptococcus pneumoniae, Staphylococcus aureus, Escherichia coli, Enterococcus, Bacillus) or onto Sabouraud Dextrose Agar (Candida) and incubated at 35° C. Haemophilus and Streptococcus pneumoniae are incubated in 5% CO2; all other isolates are incubated in ambient air. Isolates are sub-cultured 2× before assay.
(§4) Colonies are selected from plates and used to prepare an inoculum equivalent to a 0.5 McFarland standard in Trypticase Soy Broth. An inoculum with a density equivalent to a 1.0 McFarland standard is prepared for Streptococcus pneumoniae. The inoculum density for all cultures is ˜10^8 CFU/mL in TSB. This TSB inoculum is diluted 1:10 in sterile saline (4 mL inoculum+36 mL saline; equivalent to ˜10^7 CFU/mL) and kept on ice until used to inoculate microtiter plates.
(§5) All wells of 96-well microtiter plates (Dynex) are filled with 100 TL media. Haemophilus test media plates are prepared to test Haemophilus influenzae; Cation-Adjusted Mueller Hinton+5% Lysed Horse Blood plates are prepared to test Streptococcus pneumoniae; Cation-Adjusted Mueller Hinton Broth plates are prepared to test Enterococcus, Staphylococcus aureus, Escherichia coli and Bacillus subtilis. RPMI 1640 is used to test Candida. The MICs against S. aureus Smith are determined in Cation-adjusted Mueller Hinton and in Cation-Adjusted Mueller Hinton+50% Human Serum, to determine if the compound is inactivated by some component in serum (indicated by an increase in the MIC). Filled plates are wrapped in plastic bags (to minimize evaporation), stored frozen and thawed before use.
(§6) The compounds are prepared on a weight basis. Compounds are prepared to 2-10 mg/mL in 100% DMSO, then diluted to 1 mg/mL in a 1:1 dilution of DMSO/233 CAMHB (final concentration=50% DMSO/50% CAMHB). Compounds are serially diluted 1:1 in 50% DMSO/50% CAMHB in BD Biosciences Deep Well Polypropylene 96 well plates (starting concentration 1-5 mg/mL).
(§7) Using a Finn Automated Multichannel Pipette, (0.5-10 μL volume) 6.4 TLs of antimicrobial working solutions are added to wells of filled microtiter plates (concentration of antimicrobial in first well=512-64 microg/mL; concentration of DMSO=3.2%). Antimicrobials are added in this manner to keep constant the amount of DMSO in each well (to keep compounds solubilized and to account for the possibility of non-specific killing by the DMSO. The last row contains a growth control of 3.2% DMSO.
(§8) Controls (Penicillin G and chloramphenicol) are run with each assay. The controls are prepared in the same manner as described for the compounds of the invention. Ertapenem is included as a control for the serum protein binding assay.
(§9) Plates are incubated at 35° C. in ambient air. An uninoculated plate is also incubated as a sterility check. Results are recorded after 22-24-hours' incubation. Plates were read to no growth.

[2] = tested on: Staphylococcus Aureus CL 5814; conditions: Staphylococcus Aureus strain CL 5814
Procedure: as §1, §2, §3, §4, §5, §6, §7, §8, §9

[3] = tested on: Enterococcus Faecalia CLB 21560
Procedure: as §1, §2, §3, §4, §5, §6, §7, §8, §9

[4] = tested on: Staphylococcus Aureus MB 2865; conditions: Staphylococcus Aureus strain MB 2865
Procedure: as §1, §2, §3, §4, §5, §6, §7, §8, §9

MIC ([3]; Enterococcus Faecalia strain CLB 21560, read-out: MIC) [µg/mL] | SMILES | MIC [1] [µg/mL] | MIC [2] [µg/mL] | MIC ([3]; Enterococcus) [µg/mL] | MIC [4] [µg/mL]
– | CO/C(C)=C1/NC(=O)[C@H]([C@@H](C)O)NC(=O)c2csc(n2)-c2cc(O)c(-c3nc(CNC(=O)CN4CCOCC4)cs3)nc2-c2csc(n2)[C@@H]2COC(=O)c3c4c5c(cccc5n3O)COC(=O)[C@@H](O[C@H]3C[C@](C)(O)[C@H](N(C)C)[C@H](C)O3)[C@@H](OC4)[C@H](NC(=O)c3csc1n3)c1nc(cs1)C(=O)N2 [Compound A] | 0.015 (≈ 0.0101 µM) | 0.0038 (≈ 0.00256 µM) | 0.015 (≈ 0.0101 µM) | 0.0075 (≈ 0.00506 µM)
0.06 (≈ 0.0429 µM) | CO/C(C)=C1/NC(=O)[C@H]([C@@H](C)O)NC(=O)c2csc(n2)-c2cc(O)c(-c3nc(CNCCO)cs3)nc2-c2csc(n2)[C@@H]2COC(=O)c3c4c5c(cccc5n3O)COC(=O)[C@@H](O[C@H]3C[C@](C)(O)[C@H](N(C)C)[C@H](C)O3)[C@@H](OC4)[C@H](NC(=O)c3csc1n3)c1nc(cs1)C(=O)N2 [Compound B] | 0.03 (≈ 0.0215 µM) | 0.0075 (≈ 0.00536 µM) | – | 0.03 (≈ 0.0215 µM)
